Results taken from ChEMBL document CHEMBL1201862, “PubChem BioAssay data set” (2004).
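Each compound was tested at five concentrations against cells in 96-well plates for 48 hours. GI50: concentration for 50% inhibition of growth.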 Calls of active or inactive are those of the source. Rule as the data show it: active = GI50 up to about 1.1 µM and inactive = higher.

Columns and labels:
Assay in all cases: DTP human tumour cell line panel, 48 h
SK-MEL-5 = system: SK-MEL-5
MOLT-4 = system: MOLT-4
A549 = system: A549
HL-60 = system: HL-60
KM12 = system: KM12
MCF7 = system: MCF7
MDA-MB-231 = system: MDA-MB-231
HCT-116 = system: HCT-116
UACC-62 = system: UACC-62
TK-10 = system: TK-10
COLO 205 = system: COLO 205
LOX IMVI = system: LOX IMVI
NCI-H23 = system: NCI-H23
K562 = system: K562
SNB-75 = system: SNB-75
SK-MEL-2 = system: SK-MEL-2
OVCAR-3 = system: OVCAR-3
Malme-3M = system: Malme-3M
ACHN = system: ACHN
Hs-578T = system: Hs-578T
HOP-62 = system: HOP-62
NCI/ADR-RES = system: NCI/ADR-RES
DU-145 = system: DU-145
SR = system: SR
OVCAR-4 = system: OVCAR-4
SW-620 = system: SW-620
SK-MEL-28 = system: SK-MEL-28
PC-3 = system: PC-3
SK-OV-3 = system: SK-OV-3
HCC 2998 = system: HCC 2998
NCI-H460 = system: NCI-H460
U-251 = system: U-251
M14 = system: M14
SF-295 = system: SF-295
MDA-MB-435 = system: MDA-MB-435
UO-31 = system: UO-31
SF-268 = system: SF-268
786-0 = system: 786-0
HCT-15 = system: HCT-15
CCRF-CEM = system: CCRF-CEM
EKVX = system: EKVX
RXF 393 = system: RXF 393
SNB-19 = system: SNB-19
T47D = system: T47D
CAKI-1 = system: CAKI-1
UACC-257 = system: UACC-257
OVCAR-5 = system: OVCAR-5
NCI-H522 = system: NCI-H522
SN12C = system: SN12C
HOP-92 = system: HOP-92
HT-29 = system: HT-29
IGROV-1 = system: IGROV-1
BT-549 = system: BT-549
OVCAR-8 = system: OVCAR-8
SF-539 = system: SF-539
RPMI-8226 = system: RPMI-8226
MDA-N = system: MDA-N
A498 = system: A498
NCI-H226 = system: NCI-H226

Measured: GI50

CC[C@]1(Cc2ccc(OC)c(OC)c2)C=[N+]([O-])O[C@H](OC2CCCC2(c2ccccc2)c2ccccc2)[C@@H]1OC(C)=O (stereo partly drawn)
inactive: SK-MEL-5 3.55 µM | MOLT-4 2.67 µM | A549 3.54 µM | HL-60 3.36 µM | KM12 2.84 µM | MCF7 2.43 µM | MDA-MB-231 11 µM | HCT-116 2.08 µM | UACC-62 2.68 µM | TK-10 3.02 µM | COLO 205 3.35 µM | LOX IMVI 2 µM | NCI-H23 5.25 µM | K562 2.98 µM | SNB-75 2.82 µM | SK-MEL-2 4.62 µM | OVCAR-3 1.65 µM | Malme-3M 2.03 µM | ACHN 2.4 µM | Hs-578T 13.1 µM | HOP-62 12.4 µM | NCI/ADR-RES 2.59 µM | DU-145 3.03 µM | SR 2.79 µM | OVCAR-4 4.84 µM | SW-620 3.44 µM | SK-MEL-28 1.81 µM | PC-3 4.66 µM | SK-OV-3 14.5 µM | HCC 2998 2.74 µM | NCI-H460 5.4 µM | U-251 7.94 µM | M14 4.59 µM | SF-295 4.92 µM | MDA-MB-435 2.41 µM | UO-31 3.12 µM | SF-268 4.76 µM | 786-0 1.6 µM | CCRF-CEM 4.1 µM | EKVX 5.89 µM | RXF 393 1.52 µM | SNB-19 5.89 µM | T47D 2.96 µM | CAKI-1 2.95 µM | UACC-257 4.61 µM | OVCAR-5 16.7 µM | NCI-H522 2.83 µM | SN12C 4.12 µM | HOP-92 3.21 µM | HT-29 1.98 µM | IGROV-1 2.08 µM | BT-549 8.47 µM | OVCAR-8 2.67 µM
3.37 µM: HCT-15

N#CC(=S)Nc1ccc(Cl)c(Cl)c1
27.2 µM: HCT-15
inactive: SF-539 20.7 µM | RPMI-8226 3.2 µM | SK-MEL-5 22.2 µM | MOLT-4 17.3 µM | A549 24 µM | KM12 26.9 µM | MCF7 35.5 µM | MDA-MB-231 26.7 µM | HCT-116 28.8 µM | UACC-62 19 µM | TK-10 26.5 µM | COLO 205 20.6 µM | LOX IMVI 26.6 µM | NCI-H23 31.9 µM | K562 11.7 µM | SNB-75 21.7 µM | SK-MEL-2 27.7 µM | OVCAR-3 20.5 µM | Malme-3M 28.1 µM | ACHN 33.3 µM | HOP-62 44 µM | NCI/ADR-RES 26.3 µM | DU-145 45.6 µM | SR 21.7 µM | SW-620 27 µM | SK-MEL-28 30.3 µM | PC-3 23.9 µM | MDA-N 32.7 µM | SK-OV-3 20 µM | A498 32.7 µM | HCC 2998 18.7 µM | U-251 23.2 µM | M14 24.6 µM | SF-295 22.5 µM | MDA-MB-435 27 µM | SF-268 37.4 µM | 786-0 35.7 µM | CCRF-CEM 10 µM | EKVX 22.9 µM | RXF 393 25.4 µM | SNB-19 43.8 µM | T47D 27.1 µM | CAKI-1 29.8 µM | UACC-257 28.2 µM | OVCAR-5 16.4 µM | SN12C 30.5 µM | HOP-92 3.1 µM | HT-29 21.1 µM | IGROV-1 13.1 µM | BT-549 27 µM | OVCAR-8 25.4 µM | NCI-H226 22.4 µM

CCC1OC2C(CC=C(C)C)=C3OC(C)(O)C(C)(CC)C(OC(C)=O)C3=C3OC(=O)C=C1C32 (stereo not drawn)
37 µM: HCT-15
inactive: SF-539 19.6 µM | RPMI-8226 22.1 µM | SK-MEL-5 20.4 µM | MOLT-4 22.7 µM | A549 31.6 µM | HL-60 75 µM | KM12 23.1 µM | MCF7 30.1 µM | MDA-MB-231 19.8 µM | HCT-116 25.7 µM | UACC-62 18.8 µM | TK-10 34.4 µM | COLO 205 28.2 µM | LOX IMVI 21.3 µM | NCI-H23 27.7 µM | K562 32.8 µM | SNB-75 23.6 µM | SK-MEL-2 19.9 µM | OVCAR-3 37.8 µM | Malme-3M 21.4 µM | ACHN 39.6 µM | Hs-578T 39.7 µM | HOP-62 23.6 µM | NCI/ADR-RES 29.6 µM | DU-145 39.6 µM | SR 31.8 µM | OVCAR-4 32.4 µM | SW-620 53.7 µM | SK-MEL-28 24.7 µM | PC-3 38.8 µM | SK-OV-3 33.6 µM | A498 36.7 µM | HCC 2998 24 µM | NCI-H460 30.9 µM | U-251 30.3 µM | M14 30.5 µM | SF-295 17.8 µM | MDA-MB-435 21.3 µM | UO-31 22.6 µM | SF-268 31.4 µM | 786-0 37.7 µM | CCRF-CEM 36 µM | EKVX 33.3 µM | SNB-19 28.1 µM | T47D 37.8 µM | CAKI-1 28.2 µM | UACC-257 22.2 µM | OVCAR-5 22 µM | NCI-H522 16.6 µM | SN12C 20.4 µM | HOP-92 59.4 µM | HT-29 22.8 µM | IGROV-1 26.4 µM | BT-549 21.5 µM | OVCAR-8 35 µM
